Source: article PMC4641600, “Novel Activities of Select NSAID R-Enantiomers against Rac1 and Cdc42 GTPases” (PLoS ONE, 2015)
pIC50: −log10 of the molar value.

How the values were obtained:
[1] = target: T1, human COX-2 (Homo sapiens, UniProt P35354); test: Cyclooxygenase assay (CEREP), PGE2 formation; assay type: biochemical; details: recombinant enzyme, 4 μM arachidonic acid
T1 construct: purchased CEREP Laboratories (contract assay); host or cells: Sf-9
T1 sequence (P35354 18-604): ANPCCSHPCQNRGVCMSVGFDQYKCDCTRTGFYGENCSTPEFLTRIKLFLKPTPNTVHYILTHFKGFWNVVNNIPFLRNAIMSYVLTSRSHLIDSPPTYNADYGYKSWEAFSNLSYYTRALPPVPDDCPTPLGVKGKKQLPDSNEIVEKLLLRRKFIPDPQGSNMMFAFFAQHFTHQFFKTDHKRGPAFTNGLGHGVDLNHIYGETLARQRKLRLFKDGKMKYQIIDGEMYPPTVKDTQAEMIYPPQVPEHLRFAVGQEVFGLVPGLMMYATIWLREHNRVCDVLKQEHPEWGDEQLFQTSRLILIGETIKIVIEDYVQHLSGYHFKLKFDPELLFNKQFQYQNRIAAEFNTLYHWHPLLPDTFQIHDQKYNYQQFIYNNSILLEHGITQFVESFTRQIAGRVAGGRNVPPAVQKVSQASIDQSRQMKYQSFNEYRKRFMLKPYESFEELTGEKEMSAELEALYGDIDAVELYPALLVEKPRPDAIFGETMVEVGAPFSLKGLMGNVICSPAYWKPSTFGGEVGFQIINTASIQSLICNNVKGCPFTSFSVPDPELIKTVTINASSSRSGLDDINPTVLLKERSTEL

[2] = tested on: Ras-related GTPases; test: Confirmatory dose response assays on eight Ras-related GTPases; assay type: binding
Protocol: (§1) For multiplex analyses of small GTPases, 4 μm diameter glutathione-beads (GSH-beads) distinguished by seven different intensities of red fluorescence were used according to our previously described protocols. The GST-GTPases included the following eight Ras-related small GTPases: Rab2 wt, Rab7 wt, Cdc42 wt, Cdc42Q61L activating mutant, H-Ras wt, H-RasG12V, Rac1 wt and Rac1Q61L activating mutant. Briefly, Prestwick Chemical Library® compounds were tested at 10 μM compound and 1% DMSO final concentrations. After a 10 min pre-incubation with the compound BODIPY- FL-GTP (100 nM final) was added to each well and bead associated fluorescence was measured. Sample analysis was conducted with a HyperCyt® high throughput flow cytometry platform. Flow cytometric light scatter at 488 nm and fluorescence emission at 530 +/− 20 nm (FL1) and 665 +/− 10 nm (FL8) were collected on a Cyan ADP flow cytometer (Beckman Coulter, Fullerton, CA). IDLQuery software was used to determine the compound activity in each well. Gating based on forward scatter (FS) and side scatter (SS) parameters was used to identify singlet bead populations. Gating based on FL8 emission distinguishes the beads coated with different proteins, and the median FL1 fluorescence per bead population were calculated. A compound was considered a “potential active” if the change in BODIPY-FL-GTP binding differed greater than 20% from that measured in DMSO treated controls.
(§2) Test compounds identified for follow-up after the primary screen were tested at dilutions ranging from 10 nM to 100 μM final concentration against individual GTPases in multiplex and single-plex assays. Compounds tested in dose response assays were serially diluted 1:3 a total of eight times from a starting concentration of 10 mM giving a 9-point dilution series in DMSO.
(§3) bConfirmatory screens entailed dose response assays conducted in a multiplex format with eight GTPases tested as for primary screen. BODIPY-GTP-binding activity was
(§4) measured in the presence of 10 nM to 100 µM of each of 11 test compounds (4 primary screen hits and 7 additional NSAIDs considered to have chemical similarity to GTPase
(§5) active compounds). GST-GFP coated beads served as a control to detect non-specific dissociation or denaturation caused by compound addition–none of the tested NSAIDs had
(§6) any effect on bead-GST-protein binding. EC50 values were determined using Prism to determine dose response fits as shown in Figure 1 of main text; fits have R2 > 0.9. Active
(§7) compounds based on same definition used as in primary screena. […]
‡A well-characterized selective Cdc42 inhibitor served as a positive control.

[3] = typical oral dosing (S-Naproxen 500 mg; 6-MNA 750-20000 mg of nabumetone); ref Roche Investigator’s brochure, 9, 10, 17-19, 21, 23; cited from earlier work
[4] = tested on: OvCa429 and OvCa433 cells; test: Boyden chamber cell migration assay; assay type: cell-based, human; details: Homo sapiens; estimated from limited dose response data; read-out: IC50 migration Rac1/Cdc42 dependent (est)
[5] = target: H-Ras wt (Homo sapiens, UniProt P01112); test: Dose response, BODIPY-GTP binding; details: 10 nM to 100 µM
Sequence of H-Ras wt (P01112 whole entry): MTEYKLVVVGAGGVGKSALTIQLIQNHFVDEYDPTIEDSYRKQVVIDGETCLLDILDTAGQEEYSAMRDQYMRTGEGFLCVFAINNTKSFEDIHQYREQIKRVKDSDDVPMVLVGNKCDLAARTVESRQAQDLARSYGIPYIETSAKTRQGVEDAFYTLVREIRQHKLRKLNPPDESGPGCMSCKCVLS
Protocol: as §1, §2, §3, §4, §5, §6, §7

COc1ccc2cc(CC(=O)O)ccc2c1 [6-MNA, 6-methoxy-2-napthalene acetic acid]
pIC50 [1]: < 4.00
activity against the GTPases in confirmatory dose response assays (words) ([2]; 10 nM to 100 µM): lacked activity
activity against the GTPases in confirmatory dose response assays (words) ([2]; 10 nM to 100 μM, listed as 6MNA): inactive
effect ([2]; at 0.1 mM, against all GTPases): less than 20%
Serum Cmax [3]: 41200 ng/mL
pIC50 [4]: < 3.52
H-Ras wt EC50 [5]: inactive
